Test results as given in patent US20070048329A1, “Epstein barr virus peptide epitopes, polyepitopes and delivery system therefor” (priority 2002, published 2007).

How the values were obtained:
Assay type in all cases: cell-based, human
[1] = test system: T cells in PBMC of EBV seropositive donors; assay: IFN-γ ELISPOT assay, ex vivo stimulation of PBMC with LMP1 peptides
Method: The ELISPOT assay was used to assess whether stimulation of PBMC from a large panel of seropositive donors with LMP1 peptides could induce IFN-γ expression in T cells (Bharadwaj 2001). Briefly, ninety six-well mixed cellulose ester membrane plates (Millipore, Bedford, USA) were precoated with 100 μL/well of […] of anti-IFN-γ mAb, 1-D1K (Mabtech, Stockhohn, Sweden) overnight at 4° C. The plate was washed six times with phosphate-buffered saline (PBS), and unreactive sites blocked using 5% foetal bovine serum. PBMCs from healthy EBV carriers of known HLA types were separated from whole blood by Ficoll-Hypaque (Sigma) density gradient centrifugation. PBMCs were added in triplicate wells at 2.5×10^5 cells in a volume of 100 μL/well, and then peptides were added onto the PBMCs at a final 5 μg/mL concentration. PBMCs were also tested at different concentrations in triplicate wells at 2.5×10^5, 1.5×10^5 and 1×10^5 cells/well. PBMCs with various peptide concentrations, 10 μg/mL, 5 μg/mL and 1 μg/mL, were assayed. For negative controls, PBMCs were incubated in growth medium alone without adding peptides. The plate was incubated at 37° C. with 5% CO2 overnight (about 16-20 hr), then washed thrice with PBST (0.05% of Tween-20 in PBS) and three times with PBS before 100 μL/well of 1 μg/mL anti-IFN-γ mAb, 7-B6-1 (Mabtech, Stockholn, Sweden) was added and incubated at room temperature for 3-4 hr. After incubation, the plate was washed again thrice each with PBST and PBS, and 100 μL/well of 1 μg/mL streptavidin-alkaline phosphatase conjugate (Sigma) was added. The plate was incubated at room temperature for 2 hr. Wells were washed again three times each with PBST and PBS, and individual IFN-γ-producing cells were detected as dark spots after about 30-min to an hour-colour reaction with 5-bromo-4-chloro-3-indolylphosphate and nitroblue tetrazolium using an alkaline phosphatase-conjugated substrate (BCIP/NBT; Sigma). Spots were counted automatically using an image analysis software (ImagePro) (Bharadwaj 2001), and were expressed as spot-forming cells (SFC) per 10^6 PBMCs. The number of IFN-γ-secreting T cells was calculated by subtracting the negative control value from the SFC count.
To comprehensively profile the memory T cell responses against the LMP1 in seropositive virus carriers we used the ELISPOT assay, which allowed rapid ex vivo profiling of LMP1-specific immune response without prolonged in vitro culture. PBMC isolated from a panel of seropositive healthy virus carriers (Table 2) were stimulated with the complete set of overlapping LMP1 peptides and the cells that produced IFN-γ were detected. […] One of the interesting features of these responses was that the majority of the T cell reactivity was directed towards the epitopes within the transmembrane and CTAR1 domains of LMP1, while no reactivity was observed towards the CTAR2 and N-terminus (FIG. 1B). In particular, almost 80% of the CTAR1 domain was targeted for T cell recognition. To identify the T cell subsets responding to these peptides, PBMCs from the seven donors who recognized 17-mer peptides were fractionated into CD4-depleted and CD8-depleted populations and then tested again in ELISPOT assays. […] The CD4-dependent reactivity of the peptide […] was consistent with the previous observations by Leen and colleagues who mapped an HLA DQ2-restricted epitope within this sequence.
In order to determine the frequency of recognition of the HLA class I-restricted LMP1 CTL epitopes, PBMC from a panel of healthy virus carriers of diverse ethnic origin were screened by ELISPOT assays. Four different HLA class I-restricted and one HLA class II-restricted T cell epitopes were included in this analysis. Strong responses were observed against the HLA-A2-restricted […], […] and […] epitopes in 35-45% of the donors tested. […]

[2] = test system: peptide-sensitised PHA blasts and LCLs; assay: 51Cr-release cytotoxicity assay with peptide-specific CTL lines and clones; conditions: for generation of CTL lines with minimised epitope: donors; for sensitizing autologous PHA blast to lysis by YLLEMLWRL-specific CTL clone: serial dilutions of peptide, compared with wild-type YLLEMLWRL, CTL clone SB7
Method: Polyclonal CTL lines and LMP1-specific CTL clones were established according to previously published methods (Moss 1988; Khanna 1998). Briefly, 2×10^6 PBMCs were stimulated with 1×10^6 autologous lymphocytes (responder to stimulator ratio of 2:1) pulsed with 10 μM peptide for 1 hr in 2 ml in a 24-well plate. After 3 days, culture medium with IL-2 (10 U/ml) was added and the cells were further expanded. These lymphocytes were restimulated on day 7 with γ-irradiated (8000 rad) autologous LCLs. After 10 days in culture medium, the cells were used as polyclonal effectors in a standard ^51Cr-release assay against peptide-sensitised autologous PHA blasts.
To generate peripheral blood CTL clones specific for the LMP1 derived peptides, PBMCs of healthy donors were reactivated (2×10^6) PBMCs with peptide-sensitised (10 ug of peptide/ml) autologous lymphocytes (1×10^6) in 2 ml wells of a 24-well plate in culture medium. After 3 days, the cells were seeded onto 0.35% agarose and maintained in T cell growth medium containing rIL2 (50 IU/ml). After another 3 days, growing clones were transferred to 96-well round-bottom tissue culture plates (Life Technologies) and cultured in T cell growth medium containing rIL2 (50-100 IU/ml).
Target cells were pre-sensitized with synthetic peptide epitopes and then incubated with ^51Cr for 90 min. Following incubation, these cells were washed in growth medium and used as targets in a standard 5 h ^51Cr-release assay (Moss, 1988)
To further characterize the minimal T cell epitopes defined by ELISPOT assays we generated polyclonal and clonal CTL lines specific for these epitopes. PBMCs from the healthy seropositive donors were stimulated with synthetic peptide epitopes and the CTL clones or polyclonal lines were established and tested in standard ^51Cr-release assays. The […] peptide-specific CTL clones were generated using initial stimulation with peptide-sensitized autologous PBMC followed by continuous restimulation with irradiated autologous LCL. These CTL clones were screened for […]-specific CTL activity by ^51Cr release assays against peptide-sensitised autologous and allogeneic PHA blast and LCLs. […] Titration of this minimal epitope on autologous PHA blasts further confirmed the fine specificity of this CTL clone (FIG. 5B).

[3] = test system: CD4+ and CD8+ T cell populations of PBMC; assay: IFN-γ ELISPOT on CD4- or CD8-depleted PBMC; conditions: peptide 10 μg/ml
Method: FIG. 2: Ex vivo detection of IFN-γ secretion by CD4^+ and CD8^+ T cell populations following stimulation with LMP1 peptides. CD4^+ cells or CD8^+ cells were depleted from fresh PBMCs using anti-human CD4 or CD8 immunomagnetic beads as described in the Material and Methods section. These cells were resuspended in growth medium and stimulated with […] (SEQ ID NO: 36; panel A) and […] (SEQ ID NO: 39; panel B) peptides (10 μg/ml) and then tested for IFN-γ secretion using ELISPOT assays.
CD4^+ cells or CD8^+ cells were depleted from fresh PBMCs using anti-human CD4 or CD8 immunomagnetic beads (Dynabeads M450-CD4 and M450-CD8), respectively (Dynal, Oslo, Norway) according to the manufacturer's instructions. Efficient depletion was confirmed by staining the depleted PBMCs using dual staining with FITC-conjugated anti-CD8 and PE-conjugated anti-CD4 antibody and flow cytometry on a Coulter EPICS XL cytometer. […]
To comprehensively profile the memory T cell responses against the LMP1 in seropositive virus carriers we used the ELISPOT assay, which allowed rapid ex vivo profiling of LMP1-specific immune response without prolonged in vitro culture. PBMC isolated from a panel of seropositive healthy virus carriers (Table 2) were stimulated with the complete set of overlapping LMP1 peptides and the cells that produced IFN-γ were detected. […]

[4] = subject nineteen (NPC), donor theta

Row | Sequence | CTL response (SFC/10^6 PBMC) ([1]; subject beta) | CTL response (SFC/10^6 PBMC) ([1]; subject eleven) | CTL response (SFC/10^6 PBMC) ([1]; subject epsilon) | CTL response (SFC/10^6 PBMC) ([1]; subject fifteen) | CTL response (SFC/10^6 PBMC) ([1]; subject four) | CTL response (SFC/10^6 PBMC) ([1]; subject gamma) | CTL response (SFC/10^6 PBMC) [1, 4] [SFC/10^6 PBMC] | CTL response (SFC/10^6 PBMC) ([1]; subject thirteen) | CTL response (SFC/10^6 PBMC) ([1]; subject three) | CTL response (SFC/10^6 PBMC) ([1]; subject twenty) | CTL response (SFC/10^6 PBMC) ([1]; subject twenty-one) | CTL response (SFC/10^6 PBMC) ([1]; subject zeta) | further results
1 | ALLVLYSFA | 0 | 128 | 0 | 80 | 0 | 0 | 0 | 0 | 192 | 88 | 592 | 0 | CTL response (SFC/10^6 PBMC) ([1]; subject eighteen): 1184 SFC/10^6 PBMC; CTL response (SFC/10^6 PBMC) ([1]; subject one): 96 SFC/10^6 PBMC; CTL response (SFC/10^6 PBMC) ([1]; subject six): 480 SFC/10^6 PBMC; CTL response (SFC/10^6 PBMC) ([1]; subject twenty-two): 10 SFC/10^6 PBMC
2 | DSNSNEGRH |  |  |  |  |  |  |  |  |  |  |  |  | generation of CTL lines with minimised epitope [2]: did not generate CTL lines
3 | DWTGGALLVLYSFALML [LMP1 17-mer peptide] |  |  |  |  |  |  |  |  |  |  |  |  | T cell subset responding to the peptide [3]: only CD8^+ T-cell dependent reactivity
4 | ESDSNSNEG [reference compound] |  |  |  |  |  |  |  |  |  |  |  |  | generation of CTL lines with minimised epitope [2]: did not generate CTL lines
5 | IALYLQQNW |  | 504 |  |  |  | 0 | 0 |  |  |  |  |  | HLA B58-positive donors recognizing the epitope ([1]; responders/tested): 3/5; CTL response (SFC/10^6 PBMC) ([1]; subject delta): 0 SFC/10^6 PBMC; CTL response (SFC/10^6 PBMC) ([1]; subject eight): 1952 SFC/10^6 PBMC; CTL response (SFC/10^6 PBMC) ([1]; subject eta (NPC)): 0 SFC/10^6 PBMC; CTL response (SFC/10^6 PBMC) ([1]; subject five): 100 SFC/10^6 PBMC; CTL response (SFC/10^6 PBMC) ([1]; subject fourteen): 955 SFC/10^6 PBMC; CTL response (SFC/10^6 PBMC) ([1]; subject nine): 240 SFC/10^6 PBMC; CTL response (SFC/10^6 PBMC) ([1]; subject seventeen): 897 SFC/10^6 PBMC; CTL response (SFC/10^6 PBMC) ([1]; subject six): 455 SFC/10^6 PBMC; CTL response (SFC/10^6 PBMC) ([1]; subject ten): 80 SFC/10^6 PBMC; CTL response (SFC/10^6 PBMC) ([1]; subject two): 48 SFC/10^6 PBMC
6 | TDDSGHESDSNSNEGRH |  |  |  |  |  |  |  |  |  | 141 |  |  | T cell subset responding to the peptide [3]: predominantly mediated by CD4+ cells; healthy virus carriers tested recognizing the epitope [1]: all three; healthy donors showing a CD8+ T-cell response in Elispot assays ([1]; responders/healthy donors assessed): 3/21; magnitude of responses ([1]; responding healthy donors): 131-190 SFC/10^6 PBMC; CTL response (SFC/10^6 PBMC) ([1]; subject seventeen): 190 SFC/10^6 PBMC; CTL response (SFC/10^6 PBMC) ([1]; subject ten): 131 SFC/10^6 PBMC; recognition of peptide coated autologous PHA blasts by polyclonal CTL lines ([2]; CTL lines from two donors, data not shown): recognition
7 | YFLEILWGL |  |  |  |  |  |  |  |  |  |  |  |  | sensitizing autologous PHA blast to lysis by YLLEMLWRL-specific CTL clone [2]: poorly recognized
8 | YLLEMLWRL [reference compound] | 0 | 136 | 0 | 300 | 0 | 0 | 0 | 0 | 42 | 160 | 66 | 0 | CTL response (SFC/10^6 PBMC) ([1]; subject seven): 100 SFC/10^6 PBMC; CTL response (SFC/10^6 PBMC) ([1]; subject sixteen): 20 SFC/10^6 PBMC; CTL response (SFC/10^6 PBMC) ([1]; subject twelve): 0 SFC/10^6 PBMC
9 | YLMEILWRL |  |  |  |  |  |  |  |  |  |  |  |  | sensitizing autologous PHA blast to lysis by YLLEMLWRL-specific CTL clone [2]: poorly recognized
10 | YLQQNWWTL [reference compound] | 0 | 196 | 0 | 100 | 0 | 0 | 0 | 0 | 28 | 244 | 38 | 0 | CTL response (SFC/10^6 PBMC) ([1]; subject seven): 110 SFC/10^6 PBMC; CTL response (SFC/10^6 PBMC) ([1]; subject sixteen): 26 SFC/10^6 PBMC; CTL response (SFC/10^6 PBMC) ([1]; subject twelve): 44 SFC/10^6 PBMC
